According to US10899747B2, “Biaryl piperidine amide compounds and methods of use thereof” (Athenex, Inc., priority 2017, dated 2021):

Experiments:
Type in all cases: cell-based
IL-2 [1] = test: PHA-IL2 (cell activation and cytokine analysis); conditions: 50% inhibition concentration class
How it was run: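 Cells were seeded in 96-well plates at 1.0-2.0×10^6 cells/ml in 150 ul of RPMI containing 0.5% fetal calf serum. Test compounds, at up to ≤20 uM, were preincubated with the cells for 30 minutes, then phytohemagglutinin (PHA) was added and cultures were stimulated for 24-48 hours at 37 degrees C./5% CO2. Supernatant IL-2 was then quantified by standard ELISA.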

NFAT [2] = test: TCR-NFAT (luciferase-based reporter assay); conditions: Homo sapiens; 50% inhibition concentration class
Protocol: Jurkat T cells are transiently transfected with a DNA plasmid encoding Firefly luciferase under the transcriptional control of an appropriate regulatory element that may include multimerized NFAT, AP-1, NFκB, or CREB binding sites. Cells are co-transfected with a DNA plasmid encoding Renilla luciferase under the transcriptional control of a constitutive regulatory element (e.g., HSV-TK promoter). 24 hours following transfection, cells are collected and re-seeded in 96-well plates at a final density of 1.0×10^6 cells/ml in 150 ul assay medium. Test compounds may be included at a final concentration of ≤20 uM and generally pre-incubated with cells for 30 minutes prior to stimulation. An appropriate stimulus is added, including but not limited to, a) phorbol myristate acetate (PMA) and ionomycin, or b) stimulatory antibodies to the TCR complex (e.g., anti-CD3ε) and CD28. Cell cultures are stimulated for 4-6 hours in a humidified incubator (37 degrees C./5% CO2). Cells are than lysed and the level of Firefly luciferase and Renilla Luciferase activity is determined using a standard assay (e.g., Promega's Dual Luciferase Reporter Assay System) and plate-reading luminometer. The ratio obtained by dividing activation induced Firefly luciferase activity by the constitutive Renilla luciferase activity is calculated and used as a quantitative measurement of cell activation.
(§1) Jurkat T cells were transiently transfected with a DNA plasmid encoding Firefly luciferase under the transcriptional control of an appropriate regulatory element that may include multimerized NFAT, AP-1, NFκB, or CREB binding sites. Cells were co-transfected with a DNA plasmid encoding Renilla luciferase under the transcriptional control of a constitutive regulatory element (e.g., HSV-TK promoter). 24 hours following transfection, cells were collected and re-seeded in 96-well plates at a final density of 1.0×10^6 cells/ml in 150 ul assay medium. Compound 413 was included at a final concentration of ≤20 uM and pre-incubated with cells for 30 minutes prior to stimulation. Mitogens PMA and ionomycin were added. Cell cultures were stimulated for 4-6 hours in a humidified incubator (37° C./5% CO2). Cells were then lysed and the level of Firefly luciferase and Renilla Luciferase activity was determined using a standard assay (e.g., Promega's Dual Luciferase Reporter Assay System) and plate-reading luminometer. The ratio obtained by dividing activation induced Firefly luciferase activity by the constitutive Renilla luciferase activity was calculated and used as a quantitative measurement of cell activation.

IL-2 [3] = test: IL-2 secretion by ELISA in Jurkat T cells stimulated with PMA and ionomycin; conditions: Homo sapiens, supernatants harvested at 20 hours, read-out: concentration required to achieve 50% inhibition (IC50) of IL-2
Protocol: Jurkat (a transformed human T cell leukemia) cells were plated in 96-well plates at a final density of 1.0-2.0×10^6 cells/ml in 150 ul of assay medium (RPMI+0.5% fetal calf serum). Compounds 403 and 413 were included at a final concentration of ≤20 uM and pre-incubated with cells for 30 minutes prior to stimulation. Mitogens PMA and ionomycin were added to the T cell receptor (TCR) complex (e.g., anti-CD3c) and CD28. Cell cultures were stimulated for 24-48 hours in a humidified incubator (37 degrees C./5% CO2). A fraction of the culture supernatant was then harvested from each well and assayed for the presence of appropriate cytokine using standard ELISA. Cytokines analyzed was IL-2. If required, the number of cytokine producing cells can be determined using intracellular staining and flow cytometry.
More specifically, Jurkat T cells were stimulated with the mitogens PMA and ionomycin in the presence of varying concentrations of compound 403 or compound 413. Supernatants were harvested at 20 hours and analyzed for IL-2 content by ELISA. IL-2 values obtained from vehicle (DMSO) treated control wells (˜2800 pg/ml) were assigned a value of 100% and used to calculate the % inhibition achieved for each compound.

NFAT [4] = test: NFAT-dependent Firefly luciferase reporter assay in Jurkat T cells stimulated with PMA and ionomycin; conditions: Homo sapiens, PMA and ionomycin for 6 hours, read-out: concentration required to achieve 50% inhibition (IC50) of NFAT-dependent luciferase activity
Protocol: as §1, with “Mitogens PMA and ionomycin were added. Cell cultures were stimulated for 4-6 hours in a humidified incubator (37° C./5% CO2).” left out
More specifically, Jurkat T cells were co-transfected with a NFAT-dependent Firefly Luciferase reporter plasmid and a control Renilla Luciferase reporter plasmid. […] Lysates were prepared and analyzed for luciferase activity using the Dual Luciferase Reporter Assay System (Promega). […]

| SMILES | IC50 (IL-2 [1]) | IC50 (NFAT [2]) | IC50 (IL-2 [3]) | IC50 (NFAT [4]) |
| --- | --- | --- | --- | --- |
| O=C(/C=C/c1cc2c(cc1-c1ccccc1)OCO2)N1CCC(CCc2ccc(O)cc2)CC1 [Compound 111] | 1000 to 10000 nM | 1000 to 10000 nM | – | – |
| COC(=O)c1ccc(CCC2CCN(C(=O)COc3ccccc3-c3ccccc3)CC2)cc1 [Compound 101] | < 1000 nM | < 1000 nM | – | – |
| O=C(COc1ccccc1-c1ccccc1)N1CCC(CCc2ccc(O)cc2)CC1 [Compound 100] | < 1000 nM | 1000 to 10000 nM | – | – |
| O=C(COc1ccccc1-c1ccccc1)N1CCC(CCc2ccc3c(c2)OCO3)CC1 [Compound 105] | < 1000 nM | 1000 to 10000 nM | – | – |
| O=C(COc1ccccc1-c1ccccc1)N1CCC(CCc2ccccc2)CC1 [Compound 118] | 1000 to 10000 nM | 10000 to 50000 nM | – | – |
| CC(C)NC(=O)c1ccc(CCC2CCN(C(=O)COc3ccccc3-c3ccccc3)CC2)cc1 [Compound 148] | 1000 to 10000 nM | 1000 to 10000 nM | – | – |
| CC(C)Oc1cccc(CCC2CCN(C(=O)COc3ccc(C#N)cc3-c3ccc(C#N)cc3)CC2)c1 [Compound 413] | < 1000 nM | – | 18 nM | 9 nM |
| COc1ccc(CCC2CCN(C(=O)COc3cccnc3-c3ccccc3)CC2)cc1OC [Compound 141] | 1000 to 10000 nM | 10000 to 50000 nM | – | – |
| O=C(COc1ccccc1-c1ccccc1O)N1CCC(CCc2ccc3c(c2)OCO3)CC1 [Compound 169] | < 1000 nM | < 1000 nM | – | – |
| O=C(COc1ccccc1-c1ccccc1)N1CCC(CCc2cc(F)c(O)c(F)c2)CC1 [Compound 124] | < 1000 nM | 10000 to 50000 nM | – | – |
| O=C(COc1ccccc1-c1ccccc1)N1CCC(CCc2ccc3c(c2)OCCO3)CC1 [Compound 114] | < 1000 nM | 1000 to 10000 nM | – | – |
| CC(C)Oc1cccc(CCC2CCN(C(=O)COc3ccccc3-c3ccc(C#N)cc3)CC2)c1 [Compound 403] | < 1000 nM | – | 68 nM | – |
